Data: ChEMBL document CHEMBL3407459, “Synthesis and antimicrobial activity of novel structural hybrids of benzofuroxan and benzothiazole derivatives” (2015)

Assays:
[1] = tested on: Escherichia coli; assay: Antibacterial activity against Escherichia coli MG1655 harboring pRecA-lux assessed as maximum induction factor at 10^-11 M after 120 mins by luminometric analysis; assay type: functional, K-12 substr. MG1655
[2] = tested on: Escherichia coli; assay: Antibacterial activity against Escherichia coli MG1655 harboring pGrpE-lux assessed as maximum induction factor at 10^-11 M after 120 mins by luminometric analysis; assay type: functional, K-12 substr. MG1655
[3] = tested on: Escherichia coli; assay: Antibacterial activity against Escherichia coli MG1655 harboring pRecA-lux assessed as maximum induction factor at 10^-12 M after 120 mins by luminometric analysis; assay type: functional, K-12 substr. MG1655
[4] = tested on: Escherichia coli; assay: Antibacterial activity against Escherichia coli MG1655 harboring pIbpA-lux assessed as maximum induction factor at 10^-12 M after 120 mins by luminometric analysis; assay type: functional, K-12 substr. MG1655
[5] = Activation of quorum sensing system luxR in Escherichia coli MG1655 harboring pVFR1-lux assessed as maximum induction factor at 10^-12 M after 120 mins by luminometric analysis; conditions: Escherichia coli str. K-12 substr. MG1655
[6] = tested on: Escherichia coli; assay: Antibacterial activity against Escherichia coli MG1655 harboring pSoxS-lux assessed as maximum induction factor at 10^-13 M after 120 mins by luminometric analysis; assay type: functional, K-12 substr. MG1655
[7] = tested on: Escherichia coli; assay: Antibacterial activity against Escherichia coli MG1655 harboring pColD-lux assessed as maximum induction factor at 10^-13 M after 120 mins by luminometric analysis; assay type: functional, K-12 substr. MG1655
[8] = tested on: Escherichia coli; assay: Antibacterial activity against Escherichia coli MG1655 harboring pIbpA-lux assessed as maximum induction factor at 10^-13 M after 120 mins by luminometric analysis; assay type: functional, K-12 substr. MG1655
[9] = tested on: Escherichia coli; assay: Antibacterial activity against Escherichia coli MG1655 harboring pKatG-lux assessed as maximum induction factor at 10^-14 M after 120 mins by luminometric analysis; assay type: functional, K-12 substr. MG1655
[10] = tested on: Escherichia coli; assay: Antibacterial activity against Escherichia coli MG1655 harboring pGrpE-lux assessed as maximum induction factor at 10^-14 M after 120 mins by luminometric analysis; assay type: functional, K-12 substr. MG1655
[11] = tested on: Vibrio sp.; assay: Antibacterial activity against Vibrio aqamarinus VKPM B-11245 assessed as toxicity index at 10^-5 M measured for 2 hrs by luminometric analysis; assay type: functional
[12] = tested on: Vibrio sp.; assay: Antibacterial activity against Vibrio aqamarinus VKPM B-11245 assessed as toxicity index at 10^-6 M measured for 2 hrs by luminometric analysis; assay type: functional
[13] = tested on: Vibrio sp.; assay: Antibacterial activity against Vibrio aqamarinus VKPM B-11245 assessed as toxicity index at 10^-8 M measured for 2 hrs by luminometric analysis; assay type: functional
[14] = tested on: Vibrio sp.; assay: Antibacterial activity against Vibrio aqamarinus VKPM B-11245 assessed as toxicity index at 10^-9 M measured for 2 hrs by luminometric analysis; assay type: functional
[15] = tested on: Escherichia coli; assay: Antibacterial activity against Escherichia coli MG1655 harboring pXen7 assessed as toxicity index at 10^-5 M measured for 2 hrs by luminometric analysis; assay type: functional, K-12 substr. MG1655
[16] = tested on: Escherichia coli; assay: Antibacterial activity against Escherichia coli MG1655 harboring pXen7 assessed as toxicity index at 10^-9 M measured for 2 hrs by luminometric analysis; assay type: functional, K-12 substr. MG1655
[17] = tested on: Escherichia coli; assay: Antibacterial activity against Escherichia coli MG1655 harboring pXen7 assessed as toxicity index at 10^-10 M measured for 2 hrs by luminometric analysis; assay type: functional, K-12 substr. MG1655
[18] = tested on: Escherichia coli; assay: Antibacterial activity against Escherichia coli MG1655 harboring pXen7 assessed as toxicity index at 10^-14 M measured for 2 hrs by luminometric analysis; assay type: functional, K-12 substr. MG1655
[19] = tested on: Escherichia coli; assay: Antibacterial activity against Escherichia coli MG1655 harboring pRecA-lux assessed as maximum induction factor at 10^-3 M after 120 mins by luminometric analysis; assay type: functional, K-12 substr. MG1655
[20] = tested on: Escherichia coli; assay: Antibacterial activity against Escherichia coli MG1655 harboring pGrpE-lux assessed as maximum induction factor at 10^-3 M after 120 mins by luminometric analysis; assay type: functional, K-12 substr. MG1655
[21] = tested on: Escherichia coli; assay: Antibacterial activity against Escherichia coli MG1655 harboring pColD-lux assessed as maximum induction factor at 10^-4 M after 120 mins by luminometric analysis; assay type: functional, K-12 substr. MG1655
[22] = tested on: Escherichia coli; assay: Antibacterial activity against Escherichia coli MG1655 harboring pGrpE-lux assessed as maximum induction factor at 10^-4 M after 120 mins by luminometric analysis; assay type: functional, K-12 substr. MG1655
[23] = tested on: Escherichia coli; assay: Antibacterial activity against Escherichia coli MG1655 harboring pKatG-lux assessed as maximum induction factor at 10^-5 M after 120 mins by luminometric analysis; assay type: functional, K-12 substr. MG1655
[24] = tested on: Escherichia coli; assay: Antibacterial activity against Escherichia coli MG1655 harboring pRecA-lux assessed as maximum induction factor at 10^-5 M after 120 mins by luminometric analysis; assay type: functional, K-12 substr. MG1655
[25] = tested on: Escherichia coli; assay: Antibacterial activity against Escherichia coli MG1655 harboring pColD-lux assessed as maximum induction factor at 10^-5 M after 120 mins by luminometric analysis; assay type: functional, K-12 substr. MG1655
[26] = tested on: Escherichia coli; assay: Antibacterial activity against Escherichia coli MG1655 harboring pGrpE-lux assessed as maximum induction factor at 10^-5 M after 120 mins by luminometric analysis; assay type: functional, K-12 substr. MG1655
[27] = tested on: Escherichia coli; assay: Antibacterial activity against Escherichia coli MG1655 harboring pIbpA-lux assessed as maximum induction factor at 10^-5 M after 120 mins by luminometric analysis; assay type: functional, K-12 substr. MG1655
[28] = Activation of quorum sensing system luxR in Escherichia coli MG1655 harboring pVFR1-lux assessed as maximum induction factor at 10^-6 M after 120 mins by luminometric analysis; conditions: Escherichia coli str. K-12 substr. MG1655
[29] = tested on: Escherichia coli; assay: Antibacterial activity against Escherichia coli MG1655 harboring pIbpA-lux assessed as maximum induction factor at 10^-7 M after 120 mins by luminometric analysis; assay type: functional, K-12 substr. MG1655
[30] = tested on: Escherichia coli; assay: Antibacterial activity against Escherichia coli MG1655 harboring pSoxS-lux assessed as maximum induction factor at 10^-8 M after 120 mins by luminometric analysis; assay type: functional, K-12 substr. MG1655
[31] = tested on: Escherichia coli; assay: Antibacterial activity against Escherichia coli MG1655 harboring pRecA-lux assessed as maximum induction factor at 10^-8 M after 120 mins by luminometric analysis; assay type: functional, K-12 substr. MG1655
[32] = tested on: Escherichia coli; assay: Antibacterial activity against Escherichia coli MG1655 harboring pIbpA-lux assessed as maximum induction factor at 10^-8 M after 120 mins by luminometric analysis; assay type: functional, K-12 substr. MG1655
[33] = Activation of quorum sensing system luxR in Escherichia coli MG1655 harboring pVFR1-lux assessed as maximum induction factor at 10^-8 M after 120 mins by luminometric analysis; conditions: Escherichia coli str. K-12 substr. MG1655
[34] = tested on: Escherichia coli; assay: Antibacterial activity against Escherichia coli MG1655 harboring pKatG-lux assessed as maximum induction factor at 10^-9 M after 120 mins by luminometric analysis; assay type: functional, K-12 substr. MG1655
[35] = tested on: Escherichia coli; assay: Antibacterial activity against Escherichia coli MG1655 harboring pColD-lux assessed as maximum induction factor at 10^-9 M after 120 mins by luminometric analysis; assay type: functional, K-12 substr. MG1655
[36] = Activation of quorum sensing system luxR in Escherichia coli MG1655 harboring pVFR1-lux assessed as maximum induction factor at 10^-9 M after 120 mins by luminometric analysis; conditions: Escherichia coli str. K-12 substr. MG1655
[37] = tested on: Escherichia coli; assay: Antibacterial activity against Escherichia coli MG1655 harboring pSoxS-lux assessed as maximum induction factor at 10^-10 M after 120 mins by luminometric analysis; assay type: functional, K-12 substr. MG1655
[38] = Activation of quorum sensing system luxR in Escherichia coli MG1655 harboring pVFR1-lux assessed as maximum induction factor at 10^-10 M after 120 mins by luminometric analysis; conditions: Escherichia coli str. K-12 substr. MG1655
[39] = tested on: Escherichia coli; assay: Antibacterial activity against Escherichia coli MG1655 harboring pKatG-lux assessed as maximum induction factor at 10^-11 M after 120 mins by luminometric analysis; assay type: functional, K-12 substr. MG1655

Work on `O=[N+]([O-])c1cc([N+](=O)[O-])c2no[n+]([O-])c2c1Sc1nc2ccccc2s1` yielded an Activity [1] of 1.03, an Activity [2] of 1.05 and an Activity [3] of 0.94. The Activity [4] was 1.25, the Activity [5] was 2.96 and the Activity [6] was 1.03. It also gave an Activity [7] of 1.01, an Activity [8] of 1.37 and an Activity [9] of 0.78. For the same compound, the Activity [10] was 1.13, the Activity [11] was 98.83 and the Activity [12] was 73.17. It also gave an Activity [13] of 5.97, an Activity [14] of 0 and an Activity [15] of 33.59. For the same compound, the Activity [16] was 0, the Activity [17] was 3.82 and the Activity [18] was 2.74. For the same compound, the Activity [19] was 0.25, the Activity [20] was 0.35 and the Activity [21] was 1.48. For the same compound, the Activity [22] was 0.51, the Activity [23] was 0.71 and the Activity [24] was 0.93. For the same compound, the Activity [25] was 0.87, the Activity [26] was 0.88 and the Activity [27] was 1.08. For the same compound, the Activity [28] was 3.03, the Activity [29] was 1.12 and the Activity [30] was 1.27. It also gave an Activity [31] of 0.99, an Activity [32] of 1.18 and an Activity [33] of 2.77. For the same compound, the Activity [34] was 0.96, the Activity [35] was 1.05 and the Activity [36] was 1.74. For the same compound, the Activity [37] was 1.33, the Activity [38] was 3.59 and the Activity [39] was 1.03.
